Experimental data: ChEMBL document CHEMBL1773059, “NMS-P937, a 4,5-dihydro-1H-pyrazolo[4,3-h]quinazoline derivative as potent and selective Polo-like kinase 1 inhibitor” (Bioorg Med Chem Lett, 2011)
In brackets after ≈: the same amount, converted by molar mass.

How the values were obtained:
[1] = biological target: Protein-tyrosine kinase 6 (Homo sapiens, UniProt Q13882); test: Inhibition of BRK assessed as [33P]gamma-ATP incorporation into substrate after 60 mins by gamma counting
[2] = biological target: Mitogen-activated protein kinase 1 (Homo sapiens, UniProt P28482); test: Inhibition of ERK2 assessed as [33P]gamma-ATP incorporation into substrate after 60 mins by gamma counting
[3] = biological target: Mitogen-activated protein kinase 14 (Homo sapiens, UniProt Q16539); test: Inhibition of P38alpha assessed as [33P]gamma-ATP incorporation into substrate after 60 mins by gamma counting
[4] = biological target: Tyrosine-protein kinase SYK (Homo sapiens, UniProt P43405); test: Inhibition of Syk assessed as [33P]gamma-ATP incorporation into substrate after 60 mins by gamma counting
[5] = biological target: Maternal embryonic leucine zipper kinase (Homo sapiens, UniProt Q14680); test: Inhibition of MELK assessed as [33P]gamma-ATP incorporation into substrate after 60 mins by gamma counting
Insulin receptor = Insulin receptor (Homo sapiens, UniProt P06213); test: Inhibition of IR assessed as [33P]gamma-ATP incorporation into substrate after 60 mins by gamma counting
Insulin receptor, sequence (P06213 28-758 limits assumed): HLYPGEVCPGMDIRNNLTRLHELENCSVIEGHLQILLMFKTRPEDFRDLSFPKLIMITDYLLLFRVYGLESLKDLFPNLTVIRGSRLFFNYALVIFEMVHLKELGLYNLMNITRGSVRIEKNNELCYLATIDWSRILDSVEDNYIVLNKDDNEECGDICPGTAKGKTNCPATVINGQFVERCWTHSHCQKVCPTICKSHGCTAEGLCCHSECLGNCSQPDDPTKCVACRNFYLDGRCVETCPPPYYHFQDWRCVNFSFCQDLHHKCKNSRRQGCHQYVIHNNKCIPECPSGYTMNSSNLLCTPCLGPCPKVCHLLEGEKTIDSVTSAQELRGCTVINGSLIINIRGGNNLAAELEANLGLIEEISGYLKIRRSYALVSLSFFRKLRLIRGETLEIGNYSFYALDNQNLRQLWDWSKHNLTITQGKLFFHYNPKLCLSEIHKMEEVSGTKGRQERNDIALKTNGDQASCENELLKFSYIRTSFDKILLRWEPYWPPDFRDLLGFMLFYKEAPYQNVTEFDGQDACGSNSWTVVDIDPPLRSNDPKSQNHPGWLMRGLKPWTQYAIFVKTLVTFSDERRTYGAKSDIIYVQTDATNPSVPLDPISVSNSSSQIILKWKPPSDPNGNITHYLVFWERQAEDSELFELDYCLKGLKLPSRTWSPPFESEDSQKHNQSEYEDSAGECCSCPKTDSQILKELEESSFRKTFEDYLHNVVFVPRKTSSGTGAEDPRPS
Insulin receptor, sequence (P06213 763-1382 limits assumed): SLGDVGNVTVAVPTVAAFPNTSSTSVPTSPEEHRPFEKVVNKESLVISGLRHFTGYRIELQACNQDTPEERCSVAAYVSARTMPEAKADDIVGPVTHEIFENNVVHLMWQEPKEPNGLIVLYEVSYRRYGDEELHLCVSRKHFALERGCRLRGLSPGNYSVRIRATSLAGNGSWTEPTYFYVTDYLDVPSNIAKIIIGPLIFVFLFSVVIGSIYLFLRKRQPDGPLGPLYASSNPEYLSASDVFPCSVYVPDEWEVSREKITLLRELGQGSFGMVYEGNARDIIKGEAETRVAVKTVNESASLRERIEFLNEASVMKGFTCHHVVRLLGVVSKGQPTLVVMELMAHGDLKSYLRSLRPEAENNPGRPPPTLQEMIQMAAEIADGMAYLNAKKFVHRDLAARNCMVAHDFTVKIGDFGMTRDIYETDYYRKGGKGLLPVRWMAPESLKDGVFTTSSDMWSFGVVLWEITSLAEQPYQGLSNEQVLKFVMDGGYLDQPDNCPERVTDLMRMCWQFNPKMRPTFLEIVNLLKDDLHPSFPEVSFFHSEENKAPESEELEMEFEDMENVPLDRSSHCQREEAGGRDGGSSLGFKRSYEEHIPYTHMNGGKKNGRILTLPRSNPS

[6] = biological target: Serine/threonine-protein kinase 26 (Homo sapiens, UniProt Q9P289); test: Inhibition of MST4 assessed as [33P]gamma-ATP incorporation into substrate after 60 mins by gamma counting
[7] = biological target: Cyclin-dependent kinase 2/cyclin A (Homo sapiens, UniProt P24941); test: Inhibition of CDK2/CYCA assessed as [33P]gamma-ATP incorporation into substrate after 60 mins by gamma counting; type: protein-complex assay
[8] = biological target: High affinity nerve growth factor receptor (Homo sapiens, UniProt P04629); test: Inhibition of TRKA assessed as [33P]gamma-ATP incorporation into substrate after 60 mins by gamma counting
Ephrin type-A receptor 2 = Ephrin type-A receptor 2 (Homo sapiens, UniProt P29317); test: Inhibition of EphA2 assessed as [33P]gamma-ATP incorporation into substrate after 60 mins by gamma counting
[9] = Apparent permeability of the compound by PAMPA assay; type: ADME
HCT-116 [10] = test: Antitumor activity against human HCT116 cells xenografted in CD1 nu/nu mouse assessed as tumor growth inhibition at 120 mg/kg, po once daily administered on days 1 to 2 daily in weekly scheduling for 4 cycles measured on day 36; details: HCT-116, po, 864 h, read-out: TGI
[11] = biological target: Cyclin-dependent kinase 2/cyclin E1 (Homo sapiens, UniProt P24941); test: Inhibition of CDK2/CYCE assessed as [33P]gamma-ATP incorporation into substrate after 60 mins by gamma counting; type: protein-complex assay
[12] = biological target: Cyclin-dependent kinase 1/cyclin B1 (Homo sapiens, UniProt P06493); test: Inhibition of CDK1/CYCB assessed as [33P]gamma-ATP incorporation into substrate after 60 mins by gamma counting; type: protein-complex assay
[13] = biological target: Serine/threonine-protein kinase haspin (Homo sapiens, UniProt Q8TF76); test: Inhibition of Haspin assessed as [33P]gamma-ATP incorporation into substrate after 60 mins by gamma counting
Serine/threonine-protein kinase haspin, sequence (Q8TF76 whole entry): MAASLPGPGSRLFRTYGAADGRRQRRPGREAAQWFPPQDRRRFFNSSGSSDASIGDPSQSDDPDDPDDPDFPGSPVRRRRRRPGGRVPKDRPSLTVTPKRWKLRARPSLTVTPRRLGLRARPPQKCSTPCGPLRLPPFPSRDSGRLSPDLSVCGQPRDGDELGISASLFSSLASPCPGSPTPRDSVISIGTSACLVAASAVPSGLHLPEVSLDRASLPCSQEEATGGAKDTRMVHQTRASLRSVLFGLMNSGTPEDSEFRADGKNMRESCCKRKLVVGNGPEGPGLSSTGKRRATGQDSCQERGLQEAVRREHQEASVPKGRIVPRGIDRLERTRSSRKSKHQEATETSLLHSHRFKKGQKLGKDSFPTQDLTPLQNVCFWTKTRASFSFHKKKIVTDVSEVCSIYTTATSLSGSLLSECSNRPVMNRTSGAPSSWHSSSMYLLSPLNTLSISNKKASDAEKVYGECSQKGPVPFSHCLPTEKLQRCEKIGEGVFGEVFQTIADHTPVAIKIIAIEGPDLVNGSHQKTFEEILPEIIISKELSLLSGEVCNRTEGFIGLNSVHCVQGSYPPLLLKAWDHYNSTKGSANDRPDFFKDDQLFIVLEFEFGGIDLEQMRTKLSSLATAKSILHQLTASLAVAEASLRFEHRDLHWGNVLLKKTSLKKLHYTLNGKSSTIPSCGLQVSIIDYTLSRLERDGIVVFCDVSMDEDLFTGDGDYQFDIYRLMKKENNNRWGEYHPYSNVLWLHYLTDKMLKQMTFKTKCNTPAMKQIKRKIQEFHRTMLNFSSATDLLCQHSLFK

[14] = biological target: RAC-alpha serine/threonine-protein kinase (Homo sapiens, UniProt P31749); test: Inhibition of AKT1 assessed as [33P]gamma-ATP incorporation into substrate after 60 mins by gamma counting
[15] = biological target: cAMP-dependent protein kinase catalytic subunit alpha (Homo sapiens, UniProt P17612); test: Inhibition of PKAalpha assessed as [33P]gamma-ATP incorporation into substrate after 60 mins by gamma counting
HCT-116 [16] = test: Antitumor activity against human HCT116 cells xenografted in CD1 nu/nu mouse assessed as tumor growth inhibition at 90 mg/kg, po once daily administered on days 1 to 2 daily in weekly scheduling for 4 cycles measured on day 36; details: HCT-116, po, 864 h, read-out: TGI
Mus musculus = test: Toxicity in CD1 nu/nu mouse xenografted with human HCT116 cells assessed as reversible body weight loss at 90 mg/kg, po once daily administered on days 1 to 2 in weekly scheduling for 4 cycles measured on day 36; details: in vivo
[17] = Intrinsic clearance in human liver microsomes at 1 uM; type: ADME, Microsome
[18] = Intrinsic clearance in rat hepatocytes at 1 uM; type: ADME, cell-based, Liver, Hepatocyte
[19] = Solubility of compound in 10% Tween 80; type: physicochemical
[20] = biological target: Hepatocyte growth factor receptor (Homo sapiens, UniProt P08581); test: Inhibition of MET assessed as [33P]gamma-ATP incorporation into substrate after 60 mins by gamma counting
Hepatocyte growth factor receptor, sequence (P08581 whole entry): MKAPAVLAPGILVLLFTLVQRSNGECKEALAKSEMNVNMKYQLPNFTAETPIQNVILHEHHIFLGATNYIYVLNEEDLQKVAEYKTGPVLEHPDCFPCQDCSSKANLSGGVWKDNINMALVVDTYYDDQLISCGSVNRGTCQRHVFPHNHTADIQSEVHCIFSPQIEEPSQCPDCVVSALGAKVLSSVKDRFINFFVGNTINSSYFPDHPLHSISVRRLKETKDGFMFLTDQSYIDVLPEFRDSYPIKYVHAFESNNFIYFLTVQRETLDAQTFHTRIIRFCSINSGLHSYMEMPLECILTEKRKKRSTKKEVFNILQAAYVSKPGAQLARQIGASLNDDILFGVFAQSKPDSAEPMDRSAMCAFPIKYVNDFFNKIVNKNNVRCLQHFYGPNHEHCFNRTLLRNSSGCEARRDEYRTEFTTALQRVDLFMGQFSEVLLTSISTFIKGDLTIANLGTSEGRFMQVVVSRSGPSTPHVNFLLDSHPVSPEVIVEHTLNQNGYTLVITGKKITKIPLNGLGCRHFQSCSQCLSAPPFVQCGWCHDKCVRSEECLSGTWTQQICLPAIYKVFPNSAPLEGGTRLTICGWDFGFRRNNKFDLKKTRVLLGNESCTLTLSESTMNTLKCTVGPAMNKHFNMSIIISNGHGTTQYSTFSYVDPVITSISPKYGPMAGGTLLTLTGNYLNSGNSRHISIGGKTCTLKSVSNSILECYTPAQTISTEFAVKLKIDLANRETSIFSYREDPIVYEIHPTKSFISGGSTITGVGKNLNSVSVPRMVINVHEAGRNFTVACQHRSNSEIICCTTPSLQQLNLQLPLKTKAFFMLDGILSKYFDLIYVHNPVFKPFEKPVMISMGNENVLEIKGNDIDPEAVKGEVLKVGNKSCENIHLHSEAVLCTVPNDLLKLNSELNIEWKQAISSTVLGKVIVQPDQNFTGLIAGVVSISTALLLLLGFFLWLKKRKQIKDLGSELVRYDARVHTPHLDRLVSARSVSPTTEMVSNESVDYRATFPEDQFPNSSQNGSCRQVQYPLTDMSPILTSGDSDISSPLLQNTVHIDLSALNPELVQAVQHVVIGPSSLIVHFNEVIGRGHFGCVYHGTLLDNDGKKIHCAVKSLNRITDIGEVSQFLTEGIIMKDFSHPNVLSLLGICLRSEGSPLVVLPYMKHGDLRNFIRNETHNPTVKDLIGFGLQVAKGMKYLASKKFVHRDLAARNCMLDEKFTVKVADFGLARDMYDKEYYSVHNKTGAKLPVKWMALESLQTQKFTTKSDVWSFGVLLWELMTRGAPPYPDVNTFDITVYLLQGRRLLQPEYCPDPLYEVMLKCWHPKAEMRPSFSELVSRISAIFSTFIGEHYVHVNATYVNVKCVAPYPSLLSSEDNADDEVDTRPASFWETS

[21] = Solubility of compound at pH 7; type: physicochemical; details: buffer
Aurora kinase B = Aurora kinase B (Homo sapiens, UniProt Q96GD4); test: Inhibition of Aur-B assessed as [33P]gamma-ATP incorporation into substrate after 60 mins by gamma counting
Aurora kinase B, sequence (Q96GD4 whole entry): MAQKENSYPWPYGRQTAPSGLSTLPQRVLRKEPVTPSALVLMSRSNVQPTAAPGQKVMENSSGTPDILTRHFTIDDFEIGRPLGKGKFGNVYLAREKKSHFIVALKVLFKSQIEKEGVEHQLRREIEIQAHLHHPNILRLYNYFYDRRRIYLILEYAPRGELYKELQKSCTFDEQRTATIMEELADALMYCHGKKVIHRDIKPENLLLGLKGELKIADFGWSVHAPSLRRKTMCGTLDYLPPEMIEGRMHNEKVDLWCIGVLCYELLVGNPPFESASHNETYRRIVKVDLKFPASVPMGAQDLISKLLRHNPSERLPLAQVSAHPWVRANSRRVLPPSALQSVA

[22] = biological target: Non-receptor tyrosine-protein kinase TYK2 (Homo sapiens, UniProt P29597); test: Inhibition of TYK2 assessed as [33P]gamma-ATP incorporation into substrate after 60 mins by gamma counting
[23] = biological target: Protein kinase C beta type (Homo sapiens, UniProt P05771); test: Inhibition of PKCbeta assessed as [33P]gamma-ATP incorporation into substrate after 60 mins by gamma counting
[24] = biological target: MAP kinase-interacting serine/threonine-protein kinase 2 (Homo sapiens, UniProt Q9HBH9); test: Inhibition of MNK2 assessed as [33P]gamma-ATP incorporation into substrate after 60 mins by gamma counting
[25] = biological target: Eukaryotic translation initiation factor 2-alpha kinase 3 (Homo sapiens, UniProt Q9NZJ5); test: Inhibition of PERK assessed as [33P]gamma-ATP incorporation into substrate after 60 mins by gamma counting
[26] = biological target: Cyclin-dependent kinase 4/cyclin D1 (Homo sapiens, UniProt P11802); test: Inhibition of CDK4/CYCD1 assessed as [33P]gamma-ATP incorporation into substrate after 60 mins by gamma counting; type: protein-complex assay
[27] = biological target: Serine/threonine-protein kinase pim-1 (Homo sapiens, UniProt P11309); test: Inhibition of PIM1 assessed as [33P]gamma-ATP incorporation into substrate after 60 mins by gamma counting
Serine/threonine-protein kinase pim-1, sequence (P11309 whole entry): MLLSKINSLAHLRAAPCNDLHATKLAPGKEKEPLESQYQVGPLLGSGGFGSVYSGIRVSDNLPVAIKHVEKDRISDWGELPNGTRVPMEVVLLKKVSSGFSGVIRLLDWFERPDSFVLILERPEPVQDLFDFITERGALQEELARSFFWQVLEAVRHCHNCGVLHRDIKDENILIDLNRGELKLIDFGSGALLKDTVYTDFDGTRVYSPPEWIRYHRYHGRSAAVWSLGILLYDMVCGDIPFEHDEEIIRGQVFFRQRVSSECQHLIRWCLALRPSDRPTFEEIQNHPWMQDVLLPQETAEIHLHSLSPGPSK

[28] = biological target: CDC7/DBF4 (Cell division cycle 7-related protein kinase/Activator of S phase kinase) (Homo sapiens, UniProt O00311); test: Inhibition of CDC7/DBF4 assessed as [33P]gamma-ATP incorporation into substrate after 60 mins by gamma counting; type: protein-complex assay
Aurora kinase A = Aurora kinase A (Homo sapiens, UniProt O14965); test: Inhibition of Aur-A assessed as [33P]gamma-ATP incorporation into substrate after 60 mins by gamma counting
Aurora kinase A, sequence (O14965 whole entry): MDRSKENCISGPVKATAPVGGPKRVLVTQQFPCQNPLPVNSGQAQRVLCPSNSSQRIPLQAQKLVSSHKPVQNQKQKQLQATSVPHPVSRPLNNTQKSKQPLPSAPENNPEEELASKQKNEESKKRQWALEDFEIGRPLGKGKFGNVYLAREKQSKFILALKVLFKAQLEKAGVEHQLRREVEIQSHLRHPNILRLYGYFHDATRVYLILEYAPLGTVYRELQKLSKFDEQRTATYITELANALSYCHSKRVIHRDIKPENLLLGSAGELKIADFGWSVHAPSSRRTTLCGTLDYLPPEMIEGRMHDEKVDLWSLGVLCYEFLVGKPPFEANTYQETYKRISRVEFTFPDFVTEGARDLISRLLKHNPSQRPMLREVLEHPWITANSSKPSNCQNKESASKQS

[29] = Inhibition of PDGFR assessed as [33P]gamma-ATP incorporation into substrate after 60 mins by gamma counting
[30] = biological target: Serine/threonine-protein kinase NIM1 (Homo sapiens, UniProt Q8IY84); test: Inhibition of NIM1 assessed as [33P]gamma-ATP incorporation into substrate after 60 mins by gamma counting
[31] = biological target: Serine/threonine-protein kinase Chk1 (Homo sapiens, UniProt O14757); test: Inhibition of CHK1 assessed as [33P]gamma-ATP incorporation into substrate after 60 mins by gamma counting

Protein-tyrosine kinase 6, sequence (Q13882 whole entry): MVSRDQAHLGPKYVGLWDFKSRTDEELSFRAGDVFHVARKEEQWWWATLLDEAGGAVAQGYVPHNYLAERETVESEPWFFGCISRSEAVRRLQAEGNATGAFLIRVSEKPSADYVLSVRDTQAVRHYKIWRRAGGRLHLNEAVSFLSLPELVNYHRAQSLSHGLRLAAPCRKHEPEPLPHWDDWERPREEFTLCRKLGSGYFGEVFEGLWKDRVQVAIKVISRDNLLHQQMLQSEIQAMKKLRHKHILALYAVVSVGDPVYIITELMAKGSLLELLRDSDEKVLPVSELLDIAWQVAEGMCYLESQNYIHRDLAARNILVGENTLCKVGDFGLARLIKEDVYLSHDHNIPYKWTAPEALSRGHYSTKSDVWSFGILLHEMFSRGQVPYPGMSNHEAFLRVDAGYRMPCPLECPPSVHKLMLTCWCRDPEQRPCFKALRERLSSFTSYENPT

`CN1CCN(c2ccc(OC(F)(F)F)c(Nc3ncc4c(n3)-c3c(c(C(N)=O)nn3CCO)CC4)c2)CC1` [ONVANSERTIB] showed an IC50 [1] of over 10 µM, an IC50 [2] of over 10 µM and an IC50 [3] of over 10 µM. For the same molecule, the IC50 [4] was over 10 µM, the IC50 [5] was […] and the IC50 (Insulin receptor) was over 10 µM. It also gave an IC50 [6] of over 10 µM, an IC50 [7] of over 10 µM and an IC50 [8] of over 10 µM. It also gave an IC50 (Ephrin type-A receptor 2) of over 10 µM, a Papp [9] of 49.6 ×10⁻⁶ cm/s and an inhibition in vivo at 120 mg/kg (HCT-116 [10]) of 84%. It also gave an IC50 [11] of over 10 µM, an IC50 [12] of over 10 µM and an IC50 [13] of over 10 µM. The IC50 [14] was over 10 µM, the IC50 [15] was over 10 µM and the inhibition in vivo at 90 mg/kg (HCT-116 [16]) was 71%. It also gave an Activity (Mus musculus) of 10%, a CLint scaled at 1 µM [17] of 16.9 mL/min/kg and a CLint scaled at 1 µM [18] of 165 mL/min/kg. For the same molecule, the solubility [19] was over 3400 µg/mL, the IC50 [20] was over 10 µM and the solubility [21] was 201 µM (≈ 107 µg/mL). The IC50 (Aurora kinase B) was over 10 µM, the IC50 [22] was over 10 µM and the IC50 [23] was over 10 µM. The IC50 [24] was over 10 µM, the IC50 [25] was over 10 µM and the IC50 [26] was over 10 µM. The IC50 [27] was over 10 µM, the IC50 [28] was over 10 µM and the IC50 (Aurora kinase A) was over 10 µM. For the same molecule, the IC50 [29] was over 10 µM, the IC50 [30] was over 10 µM and the IC50 [31] was over 10 µM.
